Laboratory results taken from patent US20110098323A1, “INHIBITORS OF BACTERIAL BIOFILM FORMATION” (MICROBIOTIX, INC., priority 2009, published 2011).
Like-named read-outs stand apart in the source and are kept apart here.

How the values were obtained:
Format in all cases: cell-based, Staphylococcus aureus
S. aureus strain NRS-77 = experiment: MBIC/MIC secondary assay; details: for MIC: Staphylococcus aureus, NRS77
Procedure: Assays for detecting and measuring bacterial biofilm formation are known in the art. An example of a biofilm formation assay useful in detecting and characterizing biofilm inhibitor compounds is described in Example 1, infra. Briefly, bacterial cells are inoculated into growth medium in individual wells of a 96-well assay plate in the presence or absence of a compound (known biofilm inhibitor or test compound). After incubation for a specified time, growth medium and non-biofilm bacterial cells are removed from each of the wells. The bacterial cells in any biofilms that are adhered to the surface of a well are fixed by addition of ethanol. The ethanol is removed, and the fixed biofilm bacteria cells are stained with crystal violet (CV). The intensity of CV staining is directly correlated with bacterial biofilm formation and is measured in the wells by reading the optical density at 600 nm (OD600). The difference in biofilm formation between untreated control and treated cultures provides an indication of relative biofilm inhibition activity (anti-biofilm activity). Use of different concentrations of an inhibitor in multiple and otherwise duplicate cultures permits determination of a compound's Minimal Biofilm Inhibitory Concentration (MBIC), which is defined herein as the lowest concentration of a compound that inhibits biofilm formation by at least 80% (i.e., ≧80%) compared to untreated control cultures. […]
A secondary assay provided a quantitative measure of both anti-biofilm activity and antibacterial activity in terms of the Minimal Biofilm Inhibitory Concentration (MBIC) and the Minimal Inhibitory Concentration (MIC), respectively. The MBIC and MIC are defined as the lowest compound concentrations that inhibit biofilm formation and bacterial growth, respectively, by at least 80% (i.e., ≧80%). The MBIC/MIC assay is formatted in a manner that is similar to the Microbroth dilution assays described by the Clinical and Laboratory Standards Institute (CLSI; formerly NCCLS) in protocol M7-A7. The growth conditions were optimized for biofilm growth in 96-well assay plates such that the resulting CV staining was within the linear range of detection. Therefore, the MBIC/MIC assay provided a stringent measure of anti-biofilm activity.
The assay was adapted for several biofilm-forming strains of S. epidermidis, S. aureus, Enterococcus faecalis, and Pseudomonas aeruginosa. Briefly, 96-well assay plates contained a two-fold dilution series for up to 8 compounds (one compound/row) and untreated controls (concentration range of 0.2 μM-100 μM). The assay plates were inoculated with the test bacterial species, e.g., S. epidermidis 18972 (0.5×TSB, 0.25% glucose) or S. aureus ATCC 35556 (0.5×TSB, 1% glucose). The inocula were prepared by diluting an overnight culture 1:100 in fresh media, which corresponds to approximately 5×10^6 cells/well. After inoculation, the assay plates were sealed with foil tape and incubated for 18 h-20 h at 37° C. The assay plates were processed, and the percent inhibition of growth (% INH-Growth) and percent inhibition of biofilm formation (% INH-Biofilm) were calculated as described above. […] Compounds with an MBIC≦10 μM and an MIC/MBIC ratio≧8 for either S. epidermidis or S. aureus were designated as validated hits.
Minimal Biofilm Inhibitory Concentration (MBIC) and Minimal Inhibitory Concentration (MIC) of the compounds in Table 3 were determined against various strains of biofilm-forming bacteria.

S. aureus ATCC 35556 [1] = experiment: Inhibition of biofilm growth at various stages of biofilm development (time of addition); details: 22 hours total incubation, CV staining
Procedure: Compound 4 was added to bacterial cultures at a concentration of 4XMBIC (12 μM) at various times (0, 1, 2, 4, 6, 8, 10, 12, and 21 hours) over a 22 hour incubation period. Biofilm growth was also followed in parallel cultures in the absence of Compound 4 (untreated controls). Biofilm growth was quantified in samples by staining with crystal violet and measuring OD600. […] See, Example 5 for details.
In this experiment, wells of a 96-well assay plate containing growth medium (0.5×TSB, 0.25% (w/v) glucose) were inoculated with S. aureus ATCC 35556 and incubated at 37° C. At selected times (0, 1, 2, 4, 6, 8, 10, 12, 21 hours) during the incubation period, Compound 4 was added to individual wells at a concentration of 4×MBIC. Biofilms were washed and stained with crystal violet (CV) to measure biofilm growth after the entire assay plate (all cultures) had been incubated for a total of 22 hours. Biofilm growth in the absence of Compound 4 was followed in parallel cultures (untreated control cultures). Samples were taken from untreated cultures at the same times as Compound 4 was added to the inhibition cultures to quantify the level of biofilm growth by the CV staining method. […]

S. aureus ATCC 35556 [2] = experiment: Planktonic growth curve assay; details: aerobic planktonic cultures; concentrations up to 8×MBIC; data not shown
Procedure: However, the specificity of these compounds for inhibiting biofilm growth was verified using an alternative growth curve assay. Planktonic cultures of S. aureus ATCC 35556 were grown aerobically in the presence of various concentrations of Compound 4 (MBIC=3.125 μM). Bacterial cell growth was monitored over time by measuring OD600.

MIC (S. aureus strain NRS-77; S. aureus strain NRS-77, read-out: MIC)	Compound	MBIC (S. aureus strain NRS-77; S. aureus strain NRS-77)	MIC (S. aureus strain NRS-77)	inhibition of biofilm formation, early stages (S. aureus ATCC 35556 [1]; Compound added at 4×MBIC at early stages (up to 2 h))	inhibition of biofilm formation, maturing biofilms (S. aureus ATCC 35556 [1]; Compound added at 4×MBIC to maturing biofilms (8-16 h))	effect on planktonic bacterial cell growth (OD600 over time) (S. aureus ATCC 35556 [2])
	CCOc1cc(/C=C2\SC(=S)N(c3cccc(F)c3)C2=O)ccc1O [Compound 8, 3-(3-fluorophenyl)-5-(3-ethoxy-4-hydroxybenzylidene)-2-thioxothiazolidin-4-one]	25 µM	≥ 100 µM			
	CCOc1cc(/C=C2\SC(=S)N(c3cccnc3)C2=O)ccc1O [Compound 36, 3-(pyridin-3-yl)-5-(3-ethoxy-4-hydroxybenzylidene)-2-thioxothiazolidin-4-one]	12.5 µM	≥ 100 µM			
	CCOc1cc(/C=C2\SC(=S)N(c3ccc(F)cc3)C2=O)ccc1O [Compound 4, 3-(4-fluorophenyl)-5-(3-ethoxy-4-hydroxybenzylidene)-2-thioxothiazolidin-4-one]	25 µM	≥ 100 µM	inhibited	resistant	did not affect
	CCOc1cc(/C=C2\SC(=S)N(c3ccc(F)nc3)C2=O)ccc1O [Compound 40, 3-(6-fluoropyridin-3-yl)-5-(3-ethoxy-4-hydroxybenzylidene)-2-thioxothiazolidin-4-one]	6.3 µM	≥ 100 µM			
≥ 100 µM	C=CCOc1cc(/C=C2\SC(=S)N(c3ccc(F)cc3)C2=O)ccc1O [Compound 29, 3-(4-fluorophenyl)-5-(3-allyloxy-4-hydroxybenzylidene)-2-thioxothiazolidin-4-one]	12.5 µM				
	CCOc1cc(/C=C2\SC(=S)N(c3cccc(C#N)c3)C2=O)ccc1O [Compound 34, 3-(3-cyanophenyl)-5-(3-ethoxy-4-hydroxybenzylidene)-2-thioxothiazolidin-4-one]	12.5 µM	≥ 100 µM			
